In PubChem BioAssay (NCI):
Values joined by “and” are separate entries in the source; they are usually repeats but may differ in a detail not shown here. Equal entries are not always repeated.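 Following 48 hours of exposure in 96-well plates, responses at five concentrations were used to interpolate endpoints linearly. Here, GI50 denotes the concentration required for 50% inhibition of growth. At the TGI there is no net growth.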

How the values were obtained:
Assay in all cases: inhibition of tumour cell growth, NCI panel, 48 h
786-0 renal = test system: 786-0 renal
A498 renal = test system: A498 renal
HCT-15 colon = test system: HCT-15 colon
HOP-92 NSCLC = test system: HOP-92 NSCLC
MDA-MB-435 = test system: MDA-MB-435
NCI-H522 lung = test system: NCI-H522 lung
OVCAR-3 ovarian = test system: OVCAR-3 ovarian
SK-MEL-28 melanoma = test system: SK-MEL-28 melanoma
CAKI-1 renal = test system: CAKI-1 renal

SMILES | TGI (786-0 renal) | TGI (A498 renal) | TGI (HCT-15 colon) | TGI (HOP-92 NSCLC) | TGI (MDA-MB-435) | TGI (NCI-H522 lung) | TGI (OVCAR-3 ovarian) | TGI (SK-MEL-28 melanoma) | TGI (CAKI-1 renal) | GI50 (CAKI-1 renal)
CC(C)C1=CC23CCC4C(C)(C(=O)O)CCCC4(C)C2CC1C1C(=O)N(c2cccc(N4C(=O)C5C6CC7C8(C)CCCC(C)(C(=O)O)C8CCC7(C=C6C(C)C)C5C4=O)c2)C(=O)C13 (stereo not given) | > 100 µM | 26.7 µM | 26.9 µM | 39.6 µM | 15.2 µM | 29.7 µM | 25.7 µM | 21.6 µM |  | 
NS(=O)(=O)c1ccc(N2C(=O)C(=O)N(c3ccccc3)C2=S)cc1 | > 100 µM | > 100 µM | > 100 µM | 95.9 µM | > 100 µM | > 100 µM |  | > 100 µM | > 100 µM | 
C(#C[C@@]12CCC[C@@H]1N(Cc1ccccc1)CO2)c1ccc2c(c1)OCO2 | > 100 µM | > 100 µM | > 100 µM |  | > 100 µM |  | > 100 µM | > 100 µM | > 100 µM | 
CC(C)(C)C(=O)CC(=O)C(F)(F)C(F)(F)C(F)(F)F.[Ag] | 33 µM |  | 31.3 µM | 40.2 µM | 33.5 µM |  | 27.7 µM | 28.3 µM | 27.8 µM | 
CN(C)c1c(C2CC(O)C(CO)O2)c(=O)c1=O (stereo not given) | > 100 µM | > 100 µM | > 100 µM | > 100 µM | > 100 µM | > 100 µM | > 100 µM | > 100 µM |  | 
COc1ccc2c(c1)C(=O)[C@@](Nc1ccc(C=O)cc1)(OC)[C@@](OC)(c1ccc([N+](=O)[O-])cc1)O2 | > 10 µM | > 10 µM | > 10 µM |  | > 10 µM |  | > 10 µM | > 10 µM | > 10 µM | 
Cc1ccc2c(=O)c(C(=O)NNC(=S)NC3CCCCC3)c[nH]c2n1 | > 100 µM | > 100 µM | > 100 µM |  | 89 µM | > 100 µM | > 100 µM | > 100 µM | > 100 µM | 
CC1(C)CN=C(Nc2ccc(F)c(Cl)c2)S1 | > 100 µM |  | > 100 µM | > 100 µM | > 100 µM | > 100 µM | > 100 µM | > 100 µM | > 100 µM | 
CC1(C)/C(=N\Nc2ccc([N+](=O)[O-])cc2[N+](=O)[O-])C2CCC1C2 (stereo not given) | > 100 µM |  | > 100 µM | > 100 µM | > 100 µM | > 100 µM | > 100 µM | > 100 µM | > 100 µM | 
CCN(CCCl)c1cc(CN(C)C)cc(NC(=O)c2ccc(C(=O)Nc3ccccc3)cc2)c1 | 0.581 µM | 1.8 µM | 4.53 µM | 3.87 µM | 0.613 µM | 0.317 µM |  | 4.36 µM | 3.69 µM | 
COc1ccc2c(c1)OC1c3ccccc3OCC21 (stereo not given) | > 100 µM | > 100 µM | > 100 µM | > 100 µM | > 100 µM |  | > 100 µM | > 100 µM | > 100 µM | 
O=C(c1cccc2cc(O)ccc12)c1cn(CCN2CCOCC2)c2ccccc12 | 42.3 µM |  |  | 71.6 µM |  | 61.4 µM |  | > 100 µM | > 100 µM | 
CC1=CC(=O)/C(=C/N2C(=O)CNC2=S)C(=O)O1 | > 100 µM |  | > 100 µM | > 100 µM | > 100 µM |  | > 100 µM | > 100 µM | > 100 µM | 
Cc1c(C#N)c(N)n(C2OC(CO)C(O)C(O)C2O)c(=S)c1C#N (stereo not given) | > 100 µM | > 100 µM | > 100 µM | > 100 µM |  | > 100 µM | > 100 µM | > 100 µM | > 100 µM | 24.4 µM and > 100 µM
CO/N=C(\C(=O)[N-][n+]1cnn(CC(=O)O)c1)c1csc(N)n1 | > 10 µM |  | > 10 µM | > 10 µM |  |  |  | > 10 µM | > 10 µM | 
C/C(=N\Nc1nc2ccccc2o1)c1cc2ccccc2cn1 | 6.61 µM | > 100 µM | > 20.3 µM | 11.1 µM | > 43.4 µM |  | 13.2 µM | 48.6 µM | 11.1 µM | 
CCOC(=O)c1csc(-c2nc(CCNC(=O)c3ccccc3)sc2Cl)n1 | > 100 µM | > 100 µM | > 100 µM | 46.4 µM | > 100 µM |  | > 100 µM | > 100 µM |  | 
C(/C=C/Nc1ccc(-c2ccccc2)cc1)=Nc1ccc(-c2ccccc2)cc1 | > 100 µM |  | > 100 µM | > 100 µM | > 100 µM | > 100 µM | > 100 µM | > 100 µM | > 100 µM | 
COc1ccc2[nH]c3c(C)c4ncccc4c(C)c3c2c1 | 2.85 µM |  | > 10 µM | > 10 µM | 3.21 µM | > 10 µM | 9.09 µM | 3.49 µM | > 10 µM | 
COC(=O)/C=C/c1cnc2c(c1)oc(=O)n2C | > 100 µM | > 100 µM | > 100 µM | > 100 µM | > 100 µM |  | > 100 µM | > 100 µM | > 100 µM | 
O=C1/C(=C\c2cccc(Oc3ccccc3)c2)SC(c2ccccc2)N1c1cccc(Cl)c1 (stereo not given) | > 100 µM | > 100 µM | > 100 µM | > 100 µM | > 100 µM |  | > 100 µM | > 100 µM | > 100 µM | 
Cc1ccc(N2C3=C(CC4=C2CC(C)(C)CC4=O)C(=O)CC(C)(C)C3)cc1 | > 100 µM | > 100 µM | > 100 µM |  | > 100 µM |  | > 100 µM | > 100 µM | > 100 µM | 
CN(/N=C/c1ccccc1C(=O)O)C1=NCCCCN1 | > 100 µM | > 100 µM | > 100 µM | > 100 µM | > 100 µM | 36.7 µM | > 100 µM |  | > 100 µM | 
COC(=O)[C@]1(Cc2ccc3ccccc3c2)CCCCCCN1C(=O)c1ccccc1 | > 53.2 µM | > 51.5 µM | > 47.1 µM | > 52.9 µM | > 53.1 µM |  | > 43.5 µM | > 52.1 µM |  | 
